{
  "source": "patent US4728509A",
  "about": "“Aqueous liquid preparation” (Takeda Chemical Industries, Ltd., priority 1985, dated 1988)",
  "data": [
    {"test": "Solubility test of compound (a) with and without solubilizers (Experimental Example 1; HPLC of filtrate)", "conditions": "not given", "protocol": "(§1) Solubility tests of the compound (a) (2-amino-7-isopropyl-5-oxo-5H-[1]-benzopyrano[2,3-b]pyridine-3-carboxylic acid) employing the solubilizers of this invention and, for comparison, employing various conventional solubilizers were performed.\n(§2) The solubility was measured by the following manner:\n(§3) An excess amount of the compound (a) was added to a given volume of a phosphate buffer, the mixture was sufficiently stirred, then the pH was adjusted to a given level, the mixture was allowed to stand at room temperature (25° C.) for 48 hours, the resultant was subjected to filtration with 0.45μ membrane filter, followed by measuring the concentration of the compound (a) in the filtrate by means of high performance liquid chromatography.", "values": [
      {"compound": "Polyoxyethylene sorbitan monooleate [Tween 80, reference compound]", "effect for improving the solubility of compound (a)": "less effective"},
      {"compound": "NNC(=O)c1ccncc1", "note": "[isoniazid, reference compound]", "effect for improving the solubility of compound (a)": "some improvement"},
      {"compound": "polyvinylpyrrolidone", "effect for improving the solubility of compound (a)": "excellent effect"},
      {"compound": "OC[C@H]1O[C@@H]2O[C@H]3[C@H](O)[C@@H](O)[C@@H](O[C@H]4[C@H](O)[C@@H](O)[C@@H](O[C@H]5[C@H](O)[C@@H](O)[C@@H](O[C@H]6[C@H](O)[C@@H](O)[C@@H](O[C@H]7[C@H](O)[C@@H](O)[C@@H](O[C@H]8[C@H](O)[C@@H](O)[C@@H](O[C@H]1[C@H](O)[C@H]2O)O[C@@H]8CO)O[C@@H]7CO)O[C@@H]6CO)O[C@@H]5CO)O[C@@H]4CO)O[C@@H]3CO", "note": "[β-cyclodextrin]", "effect for improving the solubility of compound (a)": "excellent effect"}
    ]},
    {"test": "Solubility test of compound (a) with and without solubilizers (Experimental Example 1; HPLC of filtrate)", "conditions": "in words; substance used as solubilizer", "protocol": "as §1, §2, §3", "values": [
      {"compound": "O=C([O-])c1ccccc1O.[Na+]", "note": "[sodium salicylate, reference compound]", "effect for improving the solubility of compound (a)": "less effective"},
      {"compound": "NC(N)=O", "note": "[urea, reference compound]", "effect for improving the solubility of compound (a)": "less effective"}
    ]}
  ]
}
